Test results from the supplement of paper PMC4862054.

How the values were obtained:
Details in all cases: incubation time: 72 h
BT-549 = assay: normalised response (% of control), CellTox Green; higher = less cell death (100 = DMSO, 0 = benzethonium chloride kill control)
Procedure, shortened: (§1)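 Each value is the plate-normalised signal at one concentration of the series. Breast cancer cell lines (20 µl suspension) were incubated 72 h in 384-well plates with compound at 5 concentrations in 10-fold steps over a compound-specific 10,000-fold range. CellTox Green and then CellTiter-Glo were read, and each plate was scaled to 0.1 % DMSO (100) and a positive kill control (0).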

MDA-MB-453 [1] = assay: as above
Procedure, shortened: as §1

HCC1143 = assay: as above
Procedure, shortened: as §1

HCC1937 = assay: as above
Procedure, shortened: as §1

BT-474 = assay: as above
Procedure, shortened: as §1

HCC1599 = assay: as above
Procedure, shortened: as §1

CAL-85-1 [2] = assay: as above
Procedure, shortened: as §1

CAL-51 [3] = assay: as above
Procedure, shortened: as §1

HDQ-P1 [4] = assay: as above
Procedure, shortened: as §1

MDA-MB-436 = assay: as above
Procedure, shortened: as §1

Hs578T = assay: as above
Procedure, shortened: as §1

CAL-148 [5] = assay: as above
Procedure, shortened: as §1

MDA-MB-231 = assay: as above
Procedure, shortened: as §1

MFM-223 = assay: as above
Procedure, shortened: as §1

MDA-MB-453 [6] = assay: normalised viability (% of control), CellTiter-Blue; higher = more viable cells (about 100 = DMSO control)
Experimental: (§2)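 DSRT, CellTiter-Blue viability, 72 h incubation. Signal is normalised to DMSO and benzethonium chloride controls. Value is the normalised response at dose 7.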

DU-4475 = assay: as above
Experimental: as §2

CAL-85-1 [7] = assay: as above
Experimental: as §2

CAL-51 [8] = assay: as above
Experimental: as §2

HDQ-P1 [9] = assay: as above
Experimental: as §2

CAL-148 [10] = assay: as above
Experimental: as §2

| SMILES | normalised response (BT-549) [%] | normalised response (MDA-MB-453 [1]) [%] | normalised response (HCC1143) [%] | normalised response (HCC1937) [%] | normalised response (BT-474) [%] | normalised response (HCC1599) [%] | normalised response (CAL-85-1 [2]) [%] | normalised response (CAL-51 [3]) [%] | normalised response (HDQ-P1 [4]) [%] | normalised response (MDA-MB-436) [%] | normalised response (Hs578T) [%] | normalised response (CAL-148 [5]) [%] | normalised response (MDA-MB-231) [%] | normalised response (MFM-223) [%] | normalised viability (MDA-MB-453 [6]) [%] | normalised viability (DU-4475) [%] | normalised viability (CAL-85-1 [7]) [%] | normalised viability (CAL-51 [8]) [%] | normalised viability (HDQ-P1 [9]) [%] | normalised viability (CAL-148 [10]) [%] |
| --- | --- | --- | --- | --- | --- | --- | --- | --- | --- | --- | --- | --- | --- | --- | --- | --- | --- | --- | --- | --- |
| CC(C)C[C@H](NC(=O)[C@H](CCc1ccccc1)NC(=O)CN1CCOCC1)C(=O)N[C@@H](Cc1ccccc1)C(=O)N[C@@H](CC(C)C)C(=O)[C@@]1(C)CO1 [Carfilzomib] (100 nM) | 50.8 | 90.1 | 82.7 | 32.5 | 61.4 | 97.3 | -43 | 6.93 | -12.1 | 18.8 | 46.7 | 14.6 | -17.7 | 32.8 | 12.1 | 1.6 | 3.69 | 10.2 | 0.52 | 2.75 |
| Nc1nc(Cl)nc2c1ncn2[C@@H]1O[C@H](CO)[C@@H](O)[C@@H]1F [Clofarabine] (1000 nM) | 70.7 | 113 | 112 | 109 | 100 | 81.2 | 88.3 | 12.1 | 101 | 105 | 95.3 | 67.1 | 111 | 99 | 53.6 | 29 | 56.1 | 52.1 | 101 | 40.8 |
| CC(C)C(=O)Nc1ccc([N+](=O)[O-])c(C(F)(F)F)c1 [Flutamide] (1000 nM) | 115 | 102 | 99.2 | 118 | 99.5 | 94.6 | 101 | 98.4 | 114 | 99.7 | 108 | 104 | 98.5 | 99 | 90.1 | 102 | 84.2 | 115 | 101 | 104 |
| COc1cc2c(Oc3ccc(NC(=O)C4(C(=O)Nc5ccc(F)cc5)CC4)cc3F)ccnc2cc1OCCCN1CCOCC1 [Foretinib] (100 nM) | 113 | 107 | 106 | 111 | 100 | 99.2 | 100 | 94.2 | 109 | 102 | 83.7 | 102 | 65.1 | 101 | 91.1 | 100 | 84.7 | 85.4 | 77.3 | 92.8 |
| O=NN(CCCl)C(=O)NC1CCCCC1 [Lomustine] (1000 nM) | 104 | 103 | 108 | 120 | 98.1 | 93.7 | 98.6 | 112 | 55.3 | 84.8 | 98.3 | 106 | 90 | 97 | 94.4 | 90.6 | 93.3 | 110 | 97.6 | 92.3 |
| O=C(O)CC[C@H]1CC[C@@](c2cc(F)ccc2F)(S(=O)(=O)c2ccc(Cl)cc2)CC1 [MK-0752] (100 nM) | 131 | 111 | 105 | 96 | 102 | 111 | 97 | 116 | 109 | 110 | 97.3 | 59 | 122 | 94 | 109 | 122 | 102 | 101 | 110 | 122 |
| NC1(c2ccc(-c3nc4ccn5c(=O)[nH]nc5c4cc3-c3ccccc3)cc2)CCC1 [MK-2206] (100 nM) | 133 | 105 | 97.8 | 63.5 | 103 | 108 | 102 | 117 | 108 | 107 | 116 | 109 | 110 | 92 | 84.4 | 92.7 | 86.7 | 100 | 82.9 | 91.5 |
| C[C@]12C=CC(=O)C=C1CC[C@@H]1[C@@H]2C(=O)C[C@@]2(C)[C@H]1CC[C@]2(O)C(=O)CO [Prednisone] (1000 nM) | 120 | 100 | 105 | 113 | 103 | 97.7 | 103 | 112 | 94.4 | 101 | 105 | 73 | 116 | 84.2 | 96.7 | 96.3 | 94.2 | 93.1 | 122 | 101 |
| CO[C@H]1C[C@@H]2CC[C@@H](C)[C@@](O)(O2)C(=O)C(=O)N2CCCC[C@H]2C(=O)O[C@H]([C@H](C)C[C@@H]2CC[C@@H](O)[C@H](OC)C2)CC(=O)[C@H](C)/C=C(\C)[C@@H](O)[C@@H](OC)C(=O)[C@H](C)C[C@H](C)/C=C/C=C/C=C/1C [Sirolimus] (100 nM) | 93.7 | 106 | 101 | 49.5 | 103 | 106 | 110 | 99.1 | 108 | 94.5 | 106 | 94.4 | 116 | 103 | 27.9 | 56.5 | 52.6 | 29.2 | 70.6 | 48.1 |
| CN1CCN(c2nc(C3=C(c4c[nH]c5ccccc45)C(=O)NC3=O)c3ccccc3n2)CC1 [Sotrastaurin] (1000 nM) | 111 | 105 | 58.9 | 108 | 98.8 | 92.9 | 106 | 105 | 66.9 | 102 | 105 | 58.2 | 108 | 102 | 89.7 | 95.8 | 124 | 74.3 | 100 | 111 |
| Cn1nnc2c(C(N)=O)ncn2c1=O [Temozolomide] (1000 nM) | 108 | 105 | 50.4 | 96.6 | 96.5 | 94.6 | 108 | 87.6 | 100 | 80.5 | 94.3 | 95.8 | 109 | 52 | 93.6 | 101 | 104 | 89.7 | 100 | 113 |
